Assay results reported in ChEMBL document CHEMBL5126611, “Design, Synthesis, and Biological Evaluations of Pyridyl 4,5,6,7-Tetrahydro-4,7-Methanobenzo[d]isoxazoles as Potent and Selective Inhibitors of 11β-Hydroxylase” (J Med Chem, 2022).

Experiments:
[1] = molecular target: T1, Cytochrome P450 11B2, mitochondrial (Homo sapiens, UniProt P19099); assay: Inhibition of human CYP11B2 expressed in Chinese hamster V79 MZh cells using [14C]-deoxycorticosteron as substrate measured after 6 hrs by phosphoimager analysis; assay type: ADME, cell-based
T1 sequence (P19099 whole entry): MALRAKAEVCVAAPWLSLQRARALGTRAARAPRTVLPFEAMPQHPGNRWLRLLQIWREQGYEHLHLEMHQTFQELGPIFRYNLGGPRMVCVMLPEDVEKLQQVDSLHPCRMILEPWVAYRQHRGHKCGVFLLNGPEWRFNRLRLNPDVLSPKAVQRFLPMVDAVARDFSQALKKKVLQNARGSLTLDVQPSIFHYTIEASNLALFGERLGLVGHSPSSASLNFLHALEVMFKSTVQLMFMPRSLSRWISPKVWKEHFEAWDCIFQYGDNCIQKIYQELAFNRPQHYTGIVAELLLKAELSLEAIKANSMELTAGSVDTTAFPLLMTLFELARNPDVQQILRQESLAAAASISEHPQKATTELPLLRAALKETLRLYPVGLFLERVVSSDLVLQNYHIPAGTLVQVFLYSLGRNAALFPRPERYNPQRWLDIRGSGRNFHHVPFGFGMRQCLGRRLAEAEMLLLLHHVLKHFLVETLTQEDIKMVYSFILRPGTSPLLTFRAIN

Aromatase = molecular target: T2, Aromatase (Homo sapiens, UniProt P11511); assay: Inhibition of human placental microsome CYP19 using [1beta-3H]-androstenedione as substrate; assay type: ADME, microsomes, Placenta
T2 sequence (P11511 whole entry): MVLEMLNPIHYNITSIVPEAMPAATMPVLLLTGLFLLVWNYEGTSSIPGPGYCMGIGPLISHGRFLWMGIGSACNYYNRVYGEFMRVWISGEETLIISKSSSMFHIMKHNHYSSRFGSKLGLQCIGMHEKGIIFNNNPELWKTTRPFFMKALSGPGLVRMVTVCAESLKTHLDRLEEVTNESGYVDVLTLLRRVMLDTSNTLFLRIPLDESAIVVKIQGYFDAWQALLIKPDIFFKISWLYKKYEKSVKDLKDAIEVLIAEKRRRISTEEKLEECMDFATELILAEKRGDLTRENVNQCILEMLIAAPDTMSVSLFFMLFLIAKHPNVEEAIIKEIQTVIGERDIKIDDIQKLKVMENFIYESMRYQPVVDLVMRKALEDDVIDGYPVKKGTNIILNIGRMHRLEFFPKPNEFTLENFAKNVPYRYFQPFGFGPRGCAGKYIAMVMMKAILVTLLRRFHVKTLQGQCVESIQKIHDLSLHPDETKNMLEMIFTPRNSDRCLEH

[2] = molecular target: T3, Steroid 17-alpha-hydroxylase/17,20 lyase (Homo sapiens, UniProt P05093); assay: Inhibition of human CYP17 expressed in Escherichia coli; assay type: ADME
T3 sequence (P05093 whole entry): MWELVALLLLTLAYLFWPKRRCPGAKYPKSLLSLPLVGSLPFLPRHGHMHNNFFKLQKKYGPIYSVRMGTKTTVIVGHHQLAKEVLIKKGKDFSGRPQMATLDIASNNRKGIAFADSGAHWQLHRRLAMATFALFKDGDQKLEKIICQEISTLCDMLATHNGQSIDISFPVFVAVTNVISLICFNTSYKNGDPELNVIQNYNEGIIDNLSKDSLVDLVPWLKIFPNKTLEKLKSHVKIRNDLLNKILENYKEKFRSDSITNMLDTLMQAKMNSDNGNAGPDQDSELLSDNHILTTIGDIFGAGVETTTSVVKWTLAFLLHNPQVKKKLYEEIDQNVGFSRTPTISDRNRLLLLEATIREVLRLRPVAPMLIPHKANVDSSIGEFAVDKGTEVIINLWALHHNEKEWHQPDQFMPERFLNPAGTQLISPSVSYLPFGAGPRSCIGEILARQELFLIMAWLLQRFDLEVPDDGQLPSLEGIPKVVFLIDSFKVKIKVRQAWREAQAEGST

[3] = Tmax in Sprague-Dawley rat at 25 mg/kg, po measured up to 24 hrs by LC-MS analysis; assay type: ADME, organism-based; details: in vivo
[4] = AUC (0 to infinity) in Sprague-Dawley rat at 25 mg/kg, po measured up to 24 hrs by LC-MS analysis; assay type: ADME, organism-based; set-up: dose 25 mg/kg, time < 24 hrs, route po; details: in vivo

For O=C(Nc1ccc2[nH]ncc2c1)[C@]12ON=C(c3cccnc3)[C@H]1[C@@H]1CC[C@H]2C1, the IC50 [1] was 1.12 µM, the IC50 (Aromatase) was > 10 µM and the IC50 [2] was > 10 µM. The Tmax [3] was 4.2 h and the AUC(0-inf) [4] was 54500 ng·h/mL.
